Source: patent US7914793B2, “Method for producing an antigenic substance and antibody” (priority 1997, dated 2011)

Assays:
[1] = tested on: MRSA; test: CFU of MRSA in broth after Yoshixol; assay type: cell-based, methicilin resistant Staphylococcus aureus
From the text: (§1) This procedure was repeated twice.

[2] = intravenous injection of Yoshixol in control rabbit, observation for abnormal signs; assay type: in vivo; details: Japanese white rabbit, 10 μl/Kg of 2 M Yoshixol with ethanol i.v. for 3 min, immediately after the injection through one month
Protocol: In addition, rabbit serum as the control which was shown in this example was produced by the following. In a Japanese white rabbit which was born from a parent as same as a rabbit which was used in the above example, 10 μl/Kg of 2 M Yoshixol with ethanol was injected intravenously for 3 min via a ear vein. Solution of Yoshixol was mixed with culture medium of 5 ml. The medium was filtered through miliporefilter of cellulose acetate (pore size, 0.45 μm). […] A rabbit was sacrificed under Nembutal anesthesia one month after the injection. Blood was removed.

[3] = tested on: Pseudomonas aureginosa; test: CFU of Pseudomonas aureginosa after Yoshixol; assay type: cell-based; details: for CFU: 2 M Yoshixol in ethanol, 10 ul/ml broth, 10^8, 37° C.
From the text: as §1

[4] = tested on: Mycobacterium Rapid Grower; test: CFU of Mycobacterium Rapid Grower after Yoshixol; assay type: cell-based; details: for CFU: 2 M Yoshixol in ethanol, 10 ul/ml broth, 3.3×10^5, 37° C.
From the text: as §1

[5] = tested on: Candida albicans; test: CFU of Candida albicans in broth after Yoshixol; assay type: cell-based; details: for CFU: 2 M Yoshixol in ethanol, 10 ul/ml broth
From the text: as §1

For `C=C1CC(C)(C)C=CC1=O` [Yoshixol, 4,4-dimethyl-6-methylene-2-cyclohexen-1-one], the CFU ([1]; 2 M Yoshixol in ethanol, 10 ul/ml broth, 7.6×10^8, 37 °, 24 hours after the incubation) was “zero”, the “colony growth on heart infusion agar after re-plating 0.1 ml” value (“colony growth on heart infusion agar” for short) ([1]; incubated for 48 hours) was “no colony growth” and the “abnormal signs after injection” value [2] was “Any abnormal sign did not find”. The CFU ([3]; 3 hours after the incubation) was “zero”, the CFU ([3]; one hour after the incubation) was “zero” and the “colony growth on heart infusion agar” value ([3]; incubated at 37° C. for 48 hours) was “no colony growth”. For the same compound, the CFU ([4]; 3 hours after the incubation) was “zero”, the CFU ([4]; one hour after the incubation) was “zero” and the “colony growth on heart infusion agar” value ([4]; incubated at 37° C. for 72 hours) was “no colony growth”. For the same compound, the CFU ([5]; 10^8, 3 hours after the incubation) was “zero”, the CFU ([5]; 10^8, one hour after the incubation) was “zero” and the “colony growth on heart infusion agar” value ([5]; incubated for 48 hours) was “no colony growth”.
